This note sets out measurements from patent US9108941B2, “Griseofulvin analogues for the treatment of cancer by inhibition of centrosomal clustering” (DEUTSCHES KREBSFORSCHUNGSZENTRUM STIFTUNG DES OEFFENTLICHEN …, priority 2008, dated 2015).

Data set [1] deals with GFP-α-tubulin expressing SCC114 cells. Briefly: Treatment of GFP-α-tubulin expressing SCC114 cells with griseofulvin analogues (inhibition of centrosomal clustering). The class given is cell-based. The conditions noted are these: Homo sapiens, Table 1, analogues diluted 100 micromolar to 10 nanomolar. As to the method: Cell Culture. All cell lines were cultured in Dulbecco's modified Eagle's Medium (DMEM; PAA Laboratories, Pasching, Austria) supplemented with 10% FCS (PAA). SCC114 cells stably expressing GFP-α-tubulin were generated by transfection (Eugene 6, Roche Diagnostics, Mannheim, Germany) of the transgene in pEGFP-C1 (Clontech, Heidelberg, Germany) and maintained under selective pressure by addition of geniticin (Invitrogen, Karlsruhe, Germany) Primary normal human epidermal keratinocytes (NHEK; PromoCell, Heidelberg, Germany) were cultured in Keratinocyte Growth Medium 2 (PromoCell). When indicated a griseofulvin analogue was added to the culture medium. The griseofulvin analogue was dissolved in DMSO (Sigma). In all experiments, the final DMSO concentration was 0.1%.
Treatment of GFP-α-tubulin expressing SCC114 cells with griseofulvin analogues. Analogues were dissolved in DMSO/water and diluted to span a concentration range of 100 micromolar to 10 nanomolar.

`COc1cc(OC)c2c(c1Cl)O[C@]1(C2=O)C(OCc2cccc(I)c2)=CC(=O)C[C@H]1C` [Compound 3, (2S,6′R)-(7-Chloro-4,6-dimethoxy-benzofuran-3-one)-2-spiro-1′-(2′-(3-iodobenzyloxy)-6′-methyl-cyclohex-2′-ene-4′-one)]: the melting point (commonly the temperature of the solid-liquid transition) was 171 to 174 °C.
On to `COc1cc(OC)c2c(c1Cl)O[C@]1(C2=O)C(OCc2ccc(I)cc2)=CC(=O)C[C@H]1C` [Compound 2, (2S,6′R)-(7-Chloro-4,6-dimethoxy-benzofuran-3-one)-2-spiro-1′-(2′-(4-iodobenzyloxy)-6′-methyl-cyclohex-2′-ene-4′-one)], for which the melting point lay in the range of 166 to 168 °C. The IC50 (as a rule, the concentration at which inhibition is half-maximal) in data set [1] turned out to be 3.3 µM.
Regarding `COc1cc(OC)c2c(c1Cl)O[C@]1(C2=O)C(OCc2ccc(C)cc2)=CC(=O)C[C@H]1C` [Compound 5, (2S,6′R)-(7-Chloro-4,6-dimethoxy-benzofuran-3-one)-2-spiro-1′-(6′-methyl-2′-(4-methylbenzyloxy)-cyclohex-2′-ene-4′-one)], the melting point was 176 to 178 °C. In data set [1], this compound gave an IC50 of 0.9 µM.
As to `COc1cc(OC)c2c(c1Cl)O[C@]1(C2=O)C(OCc2ccc(-c3ccccc3)cc2)=CC(=O)C[C@H]1C` [Compound 9, (2S,6′R)-(7-Chloro-4,6-dimethoxy-benzofuran-3-one)-2-spiro-1′-(2′-(4-biphenylmethoxy)-6′-methyl-cyclohex-2′-ene-4′-one)], in data set [1], the IC50 is 3.2 µM. In other words, the single-digit micromolar range.
In turn, `CCCOC1=C(I)C(=O)C[C@@H](C)[C@]12Oc1c(Cl)c(OC)cc(OC)c1C2=O` [Compound 11, (2S,6′R)-(7-Chloro-4,6-dimethoxy-benzofuran-3-one)-2-spiro-1′-(3′-iodo-6′-methyl-2′-propoxy-cyclohex-2′-ene-4′-one)] came in with a melting point of 98 to 100 °C. In data set [1], this compound came in with an IC50 of 2.1 µM.
With `COc1cc(OC)c2c(c1Cl)O[C@]1(C2=O)C(OCc2ccc(CO)cc2)=CC(=O)C[C@H]1C` [Compound 6, (2S,6′R)-(7-Chloro-4,6-dimethoxy-benzofuran-3-one)-2-spiro-1′-(6′-methyl-2′-(4-hydroxymethylbenzyloxy)-cyclohex-2′-ene-4′-one)], in data set [1], the IC50 came to 1.2 µM. This lies in the single-digit micromolar range.
With `COc1cc(OC)c2c(c1Cl)O[C@]1(C2=O)C(OCc2ncc(C)c([N+](=O)[O-])c2C)=CC(=O)C[C@H]1C` [Compound 8, (2S,6′R)-(7-Chloro-4,6-dimethoxy-benzofuran-3-one)-2-spiro-1′-(6′-methyl-2′-((3,5-dimethyl-4-nitro-pyrid-2-yl)methyloxy)-cyclohex-2′-ene-4′-one)], the half-maximal inhibitory concentration (IC50) in data set [1] was 9.1 µM.
In turn, `COc1cc(OC)c2c(c1Cl)O[C@]1(C2=O)C(OCc2ccc(CBr)cc2)=CC(=O)C[C@H]1C` [Compound 7, (2S,6′R)-(7-Chloro-4,6-dimethoxy-benzofuran-3-one)-2-spiro-1′-(6′-methyl-2′-(4-bromo-methylbenzyloxy)-cyclohex-2′-ene-4′-one)] returned an IC50 in data set [1] of 4.7 µM.
In the case of `COc1cc(OC)c2c(c1Cl)O[C@]1(C2=O)C(OCc2ccc(Cl)cc2)=CC(=O)C[C@H]1C` [Compound 1, (2S,6′R)-(7-Chloro-4,6-dimethoxy-benzofuran-3-one)-2-spiro-1′-(2′-(4-chlorobenzyloxy)-6′-methyl-cyclohex-2′-ene-4′-one)], the melting point lay within 173 to 175 °C. The IC50 in data set [1] was 3.4 µM.
Compound `COc1cc(OC)c2c(c1Cl)O[C@]1(C2=O)C(Oc2ccccc2)=CC(=O)C[C@H]1C` [Compound 10, (2S,6′R)-(7-Chloro-4,6-dimethoxy-benzofuran-3-one)-2-spiro-1′-(6′-methyl-2′-phenoxy-cyclohex-2′-ene-4′-one)] returned an IC50 in data set [1] of 1.5 µM.
Take `COc1cc(OC)c2c(c1Cl)O[C@]1(C2=O)C(OCc2ccccc2I)=CC(=O)C[C@H]1C` [Compound 4, (2S,6′R)-(7-Chloro-4,6-dimethoxy-benzofuran-3-one)-2-spiro-1′-(2′-(2-iodobenzyloxy)-6′-methyl-cyclohex-2′-ene-4′-one)]: the melting point fell in the range of 167 to 169 °C. Besides, in data set [1], the IC50 was 5.8 µM.
